The values that follow come from patent US9999649B2, “Peptide having ability to synthesize collagen and use thereof” (NOVACELL TECHNOLOGY INC., priority 2013, dated 2018).

What all share (assay type): cell-based, human
Assay [1] relates to collagen I expression induced by YIGSR peptide. In words: YIGSR peptide-induced collagen I expression under FAK and MEK inhibitors, western blot. The settings on record: Hs27 cells, 1 μM inhibitor with 1 μM YIGSR peptide, 24 hours. The protocol: To evaluate whether collagen I expression induced by YIGSR peptide according to one embodiment of the present invention is mediated by FAK and MAPK or not, FAK and MEK inhibitors were used.
Hs27 cells of Example 3 were cultured in a 24-well plate provided that the cells were cultured in a serum-free state for 24 hours. Then, the cells were treated with 1 μM of the FAK-specific inhibitor, PF573228 (Tocris Bioscience, United Kingdom) for 24 hours.

The test system of assay [2] is type I collagen. The experiment in a line: Type I collagen synthesis by Pal-YIGSR peptide, immunoblotting in Hs27 skin fibroblasts. The settings on record: for effect compared with the original YIGSR peptide: collagen I production, summary statement b41. The protocol: Hs27 skin fibroblasts, which are under culture, were treated with the peptide derivatives prepared in Examples 1 and 2, and Comparative Example 2, and an amount of expressed type I collagen in the cells were measured by an immunoblotting method. The Hs27 skin fibroblasts were cultured by using DMEM medium, (Lonza, USA), to which 10% FBS was added (Lonza, USA), under the condition of 95% of humidity, 5% CO2, and 37° C. Hs27 skin fibroblasts were treated with each concentration of the peptide (0, 2, 25, 50 and 100 μM) for 24 hours or 100 μM of the peptide for each period of time (0, 0.5, 6, 12 and 24 hours). Then, the treated cells were sonicated in the lysis buffer (150 mM NaCl, 1% Triton X-100, 10 mM Tris, 1 mM EDTA, pH 7.4). Thereafter, supernatant was isolated through centrifugation, and quantification was performed through Bradford assay. The same amount of a protein was mixed in a 5× sample buffer and the mixture was heated for 5 minutes at 95° C. The resultant was electrophoresed on 6-15% concentration gradient SDS-Polyacrylamide gel electrophoresis (SDS-PAGE) and then adsorbed to a nitrocellulose membrane. Anti-type I collagen primary antibody (Rockland, USA), anti-phospho-ERK primary antibody (Cell signaling, USA), and anti-actin primary antibody (Santa Cruz, USA) were diluted in TBST buffer (Tris buffered saline with 0.05% Tween 20, pH 7.6) including 5% skimmed milk and reacted for 16 hours. Then, the resultant was washed with TBST for 10 minutes 6 times. Then, the membrane was treated with anti-mouse rabbit peroxidase-conjugated secondary antibody (KPL, USA) for reaction for one hour at room temperature, and washed again with TBST 6 times for 10 minutes followed by development with the enhanced chemiluminescent (ECL) solution (Amersham, USA) for evaluation.
(In general: Immunoblotting shows a protein as a band on a membrane.)

Assay [3] has as its system ERK. In words: ERK phosphorylation by Pal-YIGSR peptide, immunoblotting in Hs27 skin fibroblasts. The following applies: FIG. 8. The protocol: Hs27 skin fibroblasts, which are under culture, were treated with the peptide derivatives prepared in Examples 1 and 2, and Comparative Example 2, and an amount of expressed type I collagen in the cells were measured by an immunoblotting method. The Hs27 skin fibroblasts were cultured by using DMEM medium, (Lonza, USA), to which 10% FBS was added (Lonza, USA), under the condition of 95% of humidity, 5% CO2, and 37° C. Hs27 skin fibroblasts were treated with each concentration of the peptide (0, 2, 25, 50 and 100 μM) for 24 hours or 100 μM of the peptide for each period of time (0, 0.5, 6, 12 and 24 hours). Then, the treated cells were sonicated in the lysis buffer (150 mM NaCl, 1% Triton X-100, 10 mM Tris, 1 mM EDTA, pH 7.4). Thereafter, supernatant was isolated through centrifugation, and quantification was performed through Bradford assay. The same amount of a protein was mixed in a 5× sample buffer and the mixture was heated for 5 minutes at 95° C. The resultant was electrophoresed on 6-15% concentration gradient SDS-Polyacrylamide gel electrophoresis (SDS-PAGE) and then adsorbed to a nitrocellulose membrane. […]

Assay [4] concerns collagen. The experiment in a line: Influence of palmitoyl group: collagen synthesis by RGD and Pal-RGD peptides. The following applies: FIG. 10. The protocol: Then, the treated cells were sonicated in the lysis buffer (150 mM NaCl, 1% Triton X-100, 10 mM Tris, […], pH 7.4). Thereafter, supernatant was isolated through centrifugation, and quantification was performed through Bradford assay. The same amount of a protein was mixed in a 5× sample buffer, and the mixture was heated for 5 minutes at 95° C. The resultant was electrophoresed on 6-15% concentration gradient SDS-polyacrylamide gel electrophoresis (SDS-PAGE), and then adsorbed to a nitrocellulose membrane. An anti-type I collagen primary antibody (Rockland, USA) and anti-actin primary antibody (Santa Cruz, USA) were diluted in TBST buffer (Tris buffered saline with 0.05% Tween 20, pH 7.6) including 5% skimmed milk and reacted for 16 hours. Then, the resultant was washed with TBST for 10 minutes 6 times. Thereafter, the membrane was treated with an anti-mouse rabbit peroxidase-conjugated secondary antibody (KPL, USA) for reaction for one hour at room temperature, and washed again with TBST 6 times for 10 minutes followed by development with the enhanced chemiluminescent (ECL) solution (Amersham, USA) for evaluation. In addition, the western blot image was quantitatively compared with densitometric analysis by using image J program (Ver 1.38, //rsbweb.nih.gov/ij/index.html). […]

The test system of assay [5] is Hs27 skin fibroblasts. In words: Cell growth by crystal violet assay. The settings on record: 72 hours. The protocol:
The Hs27 skin fibroblasts were seeded on a 24-well culture plate (40,000 cells per each), and cultured under 5% CO2, and 37° C. for 24 hours to allow cells to be attached to a bottom of the culture plate. Next day, a medium was changed to a medium including FBS. Then, cells were cultured again for 24 hours and treated with the peptide derivatives of Examples 1 and 2, and Comparative Examples 1 and 2 followed by further culture of 72 hours. Then, cell growth was measured through crystal violet assay.
Specifically, the medium in each well was removed, and […] of 0.1% crystal violet solution was added to each well followed by 5 minutes of staining. Then, the crystal violet solution was removed, and wells were washed with deionized water four times until the well became transparent. When the washed distilled water became transparent, distilled water was removed. Then, 1 ml of 95% ethanol was added with stirring for 20 minutes to dissolve crystal violet from stained cells. […] of the solution was dispensed to a 96-well plate, and absorbance was measured at 590 nm by using ELISA reader. Then, relative cell growth was calculated by using, as a control, a group which was not treated with a material to be tested.

No end group written: not given here. *: point of attachment. Palmitoyl = CCCCCCCCCCCCCCCC(=O)*; Oleyl = CCCCCCCC/C=C\CCCCCCCC*

As for `COc1cccc(-c2cc(=O)c3ccccc3o2)c1N` [PD98059], the “effect of inhibitor on collagen I expression induced by YIGSR peptide” value in assay [1] is given as “remarkably inhibited”.

`CS(=O)(=O)c1cccc(CNc2nc(Nc3ccc4c(c3)CCC(=O)N4)ncc2C(F)(F)F)c1` [PF573228]: the “effect of inhibitor on collagen I expression induced by YIGSR peptide” value in assay [1] is “remarkably repressed”.

In the case of “Oleyl-YIGSR [YIGSR peptide having an N-terminal, to which an oleyl group is added instead of the palmitoyl group]”, the “degree of collagen synthesis compared with control and Pal-YIGSR” value in assay [2] (Hs27 skin fibroblasts, FIG. 7) was “no difference from the control”. The “effect compared with the original YIGSR peptide” value in assay [2] is given as “no improved activity”. In addition, the ERK phosphorylation induction result in assay [3] is “rarely affect ERK phosphorylation”.

As for Pal-RGD [Pal-RGD peptide], the “collagen synthesis degree versus control” value in assay [4] is reported as “not significantly different from that of the control”.

Take “Palmitoyl-YIGSR [Pal-YIGSR, peptide derivative in which a palmitoyl group is attached to an N-terminal of the YIGSR peptide]”: in assay [2] (0, 2, 25, 50 and 100 μM, 24 hours), the “amount of synthesized collagen depending on concentration” value is “increased as concentration increased”. The “amount of synthesized collagen depending on exposure time” value in assay [2] (100 μM, 0, 0.5, 6, 12 and 24 hours) is reported as “increased as exposure time increased”. The “effect compared with the original YIGSR peptide” value in assay [2] is “more potent effect than the YIGSR peptide”. Besides, the “cell growth relative to untreated control” value in assay [5] (100 μM) amounted to 13%; in assay [5] (500 μM), 23%. Moreover, in assay [5], the “concentration range in which cell growth was shown” value was in the range of 0.5 to 50 µM. In addition, the ERK phosphorylation induction result in assay [3] is on record as “observed”.

As to RGD [RGD peptide], in assay [4], the “collagen synthesis degree versus control” value is given as “not significantly different from that of the control”.
